Source: PubChem BioAssay (NCI)
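Five concentrations, 48 hours, 96-well plates. The concentration for full growth arrest is given as TGI.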

Legend:
Experiment in all cases: inhibition of tumour cell growth, NCI panel, 48 h
IGROV1 ovarian = tested on: IGROV1 ovarian
OVCAR-5 ovarian = tested on: OVCAR-5 ovarian
RPMI-8226 leukemia = tested on: RPMI-8226 leukemia
EKVX NSCLC = tested on: EKVX NSCLC
CCRF-CEM leukemia = tested on: CCRF-CEM leukemia
NCI/ADR-RES ovarian = tested on: NCI/ADR-RES ovarian
MDA-MB-231 breast = tested on: MDA-MB-231 breast
UACC-257 melanoma = tested on: UACC-257 melanoma
DU-145 prostate = tested on: DU-145 prostate
U251 CNS = tested on: U251 CNS
BT-549 breast = tested on: BT-549 breast

SMILES	TGI (IGROV1 ovarian)	TGI (OVCAR-5 ovarian)	TGI (RPMI-8226 leukemia)	TGI (EKVX NSCLC)	TGI (CCRF-CEM leukemia)	TGI (NCI/ADR-RES ovarian)	TGI (MDA-MB-231 breast)	TGI (UACC-257 melanoma)	TGI (DU-145 prostate)	TGI (U251 CNS)	TGI (BT-549 breast)
Cc1cc(=O)[nH]c(NN2C(Cl)C(=O)C2c2ccccc2O)n1 (stereo unspecified)	> 100 µM	> 100 µM	> 63.2 µM	> 75.1 µM	> 100 µM	40.4 µM	> 100 µM	> 100 µM	> 100 µM	> 100 µM	–
O=C(O)c1cccc2c1/C(=N/Nc1ccccc1)CC2	> 100 µM	> 100 µM	> 100 µM	> 100 µM	> 100 µM	> 100 µM	> 100 µM	> 100 µM	> 100 µM	> 100 µM	–
COc1ccc(C2c3cc4c(cc3OC(NNS(=O)(=O)c3ccc(C)cc3)C2C)OCO4)cc1 (stereo unspecified)	> 100 µM	> 100 µM	> 100 µM	–	> 100 µM	–	> 100 µM	> 100 µM	> 100 µM	> 100 µM	> 100 µM
O=C1c2ccccc2C2C1N2C(=O)C(F)(F)F (stereo unspecified)	> 100 µM	> 100 µM	> 100 µM	> 100 µM	70.9 µM	–	–	> 100 µM	–	> 100 µM	–
Cc1ccc(SCC(CSCCO)OCn2cnc3c2NC(N)=NC32OCCO2)cc1 (stereo unspecified)	> 100 µM	> 100 µM	> 100 µM	> 100 µM	> 100 µM	> 100 µM	> 100 µM	> 100 µM	> 100 µM	> 100 µM	–
N.N.N.N.O=[N+]([O-])[O-].[Co+3].[N-]=[N+]=[N-].[N-]=[N+]=[N-]	> 100 µM	> 100 µM	> 100 µM	> 100 µM	> 100 µM	–	–	> 100 µM	–	> 100 µM	–
CCOc1cc2c(cc1O)/C(=N\OC)C[C@@H]1[C@@H]2CC[C@]2(C)[C@@H](O)CC[C@@H]12	> 30.1 µM	> 100 µM	–	> 100 µM	> 100 µM	0.186 µM	44.7 µM	> 48.1 µM	> 100 µM	22.8 µM	40.9 µM
Cc1nc(C(N)=S)sc1/C(CC(=O)C(=O)Nc1cccc2ccc(O)cc12)=N\NC(=O)c1ccncc1	> 100 µM	> 100 µM	–	> 100 µM	> 100 µM	> 100 µM	> 100 µM	> 100 µM	> 100 µM	> 100 µM	> 100 µM
COc1cc([C@@H]2c3cc4c(cc3[C@@H](Nc3ccc([N+](=O)[O-])cc3C(=O)c3ccccc3)[C@H]3COC(=O)[C@H]23)OCO4)cc(OC)c1OC	> 100 µM	> 100 µM	> 100 µM	> 100 µM	> 100 µM	> 100 µM	–	> 100 µM	> 100 µM	> 100 µM	–
CC(C)CCCCCCCCCCCCC(=O)NCC(=O)NC1C(C)OC(Nc2ncnc3c2ncn3C)C(O)C1O (stereo unspecified)	> 100 µM	97 µM	> 100 µM	> 100 µM	> 100 µM	> 100 µM	–	> 100 µM	–	11.3 µM	–
C[C@]12CC[C@H](O)CC1=CC[C@@H]1C2CC[C@]2(C)C(=O)N(N)C(=O)CC12 (stereo partly specified)	> 100 µM	> 100 µM	> 100 µM	> 100 µM	> 100 µM	–	–	> 100 µM	–	> 100 µM	–
CC(C)C1/C(=N/O)CC(c2ccccc2)N(N=O)C1c1ccccc1 (stereo unspecified)	> 100 µM	–	> 100 µM	73.5 µM	> 100 µM	> 100 µM	> 100 µM	> 100 µM	> 100 µM	> 100 µM	> 100 µM
CC[C@@]1(O)C(=O)OCc2c1cc1n(c2=O)Cc2c-1nc1ccccc1c2/C=N\NC(=O)CN	> 66.7 µM	> 100 µM	18.8 µM	> 100 µM	–	> 76.5 µM	> 100 µM	> 60.8 µM	–	> 61.5 µM	> 95.4 µM
COc1cc([C@@H]2OCC3C(c4ccc5c(c4)OCO5)OCC32)cc(OC)c1OC (stereo partly specified)	> 100 µM	> 100 µM	> 100 µM	> 100 µM	> 100 µM	–	–	–	–	> 100 µM	–
N#CN=C(N(Cc1ccccc1)Cc1ccccc1)N(Cc1ccccc1)Cc1ccccc1	> 100 µM	> 100 µM	> 100 µM	> 100 µM	> 100 µM	–	–	> 100 µM	–	–	–
O=[N+]([O-])/C(C(Cl)=C(Cl)Cl)=C(\SCc1ccccc1)N1CCCCC1	57.1 µM	43.9 µM	92.9 µM	> 100 µM	30.5 µM	–	37.3 µM	77.2 µM	> 100 µM	> 100 µM	–
CCC12C=CCN3CCC4(C(=C(C(=O)OC)[C@@H]1O)Nc1ccccc14)C32 (stereo partly specified)	3.9 µM	4.67 µM	6 µM	3.92 µM	6 µM	–	–	3.42 µM	–	5.52 µM	–
CNS(=O)(=O)NNS(=O)(=O)c1ccc2ccccc2c1	> 100 µM	> 100 µM	> 100 µM	> 100 µM	> 100 µM	–	–	> 100 µM	–	> 100 µM	–
CCOC(=O)C1=C(C)NC(=S)NC1c1ccccc1 (stereo unspecified)	> 100 µM	> 100 µM	> 65.6 µM	> 100 µM	> 76.9 µM	–	–	> 100 µM	–	> 56.2 µM	–
O=C1C(=Cc2ccc(O)cc2)N=C(c2ccccc2)N1n1c(-c2ccccc2)nc2ccccc2c1=O	> 100 µM	–	> 100 µM	> 100 µM	> 100 µM	–	> 100 µM	> 100 µM	> 100 µM	–	> 100 µM
Oc1cccc2c(Cl)ccnc12	> 29.7 µM	> 50.4 µM	–	> 30.8 µM	2.52 µM	> 100 µM	97.5 µM	12.1 µM	> 100 µM	22 µM	> 100 µM
c1ccc(N=C2SC3=Nc4cccc5cccc(c45)N3C2=Nc2ccccc2)cc1	> 100 µM	> 100 µM	> 100 µM	–	> 100 µM	> 100 µM	> 100 µM	–	> 100 µM	> 100 µM	> 100 µM
[N-]=[N+]=Nc1cc(=O)oc2ccccc12	> 100 µM	> 100 µM	> 100 µM	–	> 100 µM	–	–	> 100 µM	–	> 100 µM	–
